Laboratory results as given in patent publication US9061030B2, “sGC stimulators” (IRONWOOD PHARMACEUTICALS, INC., priority 2010, dated 2015).

Experiments:
[1] = target: T1, soluble guanylate cyclase (sGC) (Homo sapiens, UniProt Q02108+Q02153); assay: sGC-HEK-cGMP assay; format: cell-based; conditions: HEK293 cells, 10 μM SNP, percentage of sGC activity obtained with positive control BAY 41-2272 (= 100%); for Emax at 10 µM: compound at 10 μM; for Emax at 30 µM: compound at 30 μM
T1 construct: endogenously expressing soluble guanylate cyclase (sGC); endogenous in cells; host or cells: HEK293
T1 sequence (Q02153 1-619): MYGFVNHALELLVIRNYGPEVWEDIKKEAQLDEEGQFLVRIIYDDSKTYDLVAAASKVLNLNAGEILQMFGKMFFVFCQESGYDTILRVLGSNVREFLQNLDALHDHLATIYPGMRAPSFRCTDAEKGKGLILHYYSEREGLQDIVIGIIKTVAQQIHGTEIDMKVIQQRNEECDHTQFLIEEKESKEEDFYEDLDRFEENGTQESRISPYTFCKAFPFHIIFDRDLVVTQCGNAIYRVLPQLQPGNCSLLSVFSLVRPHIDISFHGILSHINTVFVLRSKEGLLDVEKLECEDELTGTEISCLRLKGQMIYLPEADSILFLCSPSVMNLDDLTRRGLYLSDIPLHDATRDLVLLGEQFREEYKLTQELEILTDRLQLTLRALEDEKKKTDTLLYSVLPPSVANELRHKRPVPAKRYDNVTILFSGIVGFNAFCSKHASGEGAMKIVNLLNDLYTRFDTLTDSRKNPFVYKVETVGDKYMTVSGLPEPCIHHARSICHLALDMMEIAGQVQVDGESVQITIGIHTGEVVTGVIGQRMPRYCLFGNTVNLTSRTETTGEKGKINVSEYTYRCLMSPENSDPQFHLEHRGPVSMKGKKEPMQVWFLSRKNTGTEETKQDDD
T1 sequence (Q02108 1-690): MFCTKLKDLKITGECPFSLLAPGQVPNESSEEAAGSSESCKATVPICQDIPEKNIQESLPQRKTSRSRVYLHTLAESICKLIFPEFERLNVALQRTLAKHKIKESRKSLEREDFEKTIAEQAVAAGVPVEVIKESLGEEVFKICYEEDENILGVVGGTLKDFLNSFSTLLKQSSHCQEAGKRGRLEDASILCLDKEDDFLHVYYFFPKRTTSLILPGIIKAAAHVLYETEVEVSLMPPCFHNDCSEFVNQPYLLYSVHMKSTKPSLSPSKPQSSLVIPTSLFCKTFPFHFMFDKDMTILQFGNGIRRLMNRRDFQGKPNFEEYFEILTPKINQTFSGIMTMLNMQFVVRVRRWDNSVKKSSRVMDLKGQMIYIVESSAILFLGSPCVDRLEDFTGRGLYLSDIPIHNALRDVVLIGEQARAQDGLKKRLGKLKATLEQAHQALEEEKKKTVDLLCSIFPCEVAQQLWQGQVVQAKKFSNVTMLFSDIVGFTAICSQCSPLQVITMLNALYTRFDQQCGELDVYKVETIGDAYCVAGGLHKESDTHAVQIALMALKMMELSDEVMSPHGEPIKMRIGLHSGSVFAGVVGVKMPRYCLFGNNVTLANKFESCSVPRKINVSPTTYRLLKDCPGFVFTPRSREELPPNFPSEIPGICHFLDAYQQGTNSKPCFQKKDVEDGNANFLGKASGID
Procedure: Human embryonic kidney cells (HEK293), endogenously expressing soluble guanylate cyclase (sGC), were used to evaluate the activity of the test compounds. Compounds stimulating the sGC receptor should cause an increase in the intracellular concentration of cGMP. HEK 293 cells were seeded in Dulbecco's Modification of Eagle's Medium supplemented with fetal bovine serum (10% final) and L-glutamine (2 mM final) in a 200 μL volume at a density of 1×10^5 cells/well in a poly-D-lysine coated 96 well flat bottom plate and grown overnight at 37° C. Medium was aspirated and cells were washed with 1× Hank's Buffered Saline Salt Solution (200 μL). Cells were then incubated for 15 minutes at 37° C. with 0.5 mM 3-isobutyl-1-methylxanthine (200 μL). Test article was then added to the assay mixture (2 μL) and incubated in the presence of 10 μM Sodium Nitroprusside (SNP) at 37° C. for 10 minutes. After the 10 minute incubation, the assay mixture was aspirated and 0.1M HCl (200 μL) was added to the cells. The plate was incubated at 4° C. for 30 minutes in the 0.1M HCl to stop the reaction and lysed the cells. The plates were then centrifuged at 1,200 g for 5 minutes at room temperature. Supernatants were collected and transferred to a new flat bottom 96 well plate for analysis. Vehicle controls were carried out using DMSO (1%). A known sGC stimulator, BAY 41-2272, was used as the positive control.
Samples were diluted with an equal volume of 1 M Ammonium Acetate (pH 7) to neutralize samples for better chromatography. A 2×cGMP standard curve was prepared in 0.1 M HCl and then diluted with an equal volume of 1 M Ammonium Acetate, with the following final concentrations in nM: 1024, 512, 256, 128, 64, 32, 16, 8, 4, 2, 1.cGMP concentrations were determined from each sample using the LC/MS conditions (Table 2 below) and calculated standard curve. EC50 values were calculated from concentration-response curves generated with GraphPad Prism Software.
The biological activities of some of the compounds according to Formula IA or Formula IB determined with the sGC-HEK assay are summarized in Table 3 below.

[2] = target: T2, Human soluble guanylate cyclase enzyme (hsGC) (Homo sapiens, UniProt Q02108+Q02153); assay: Purified human sGC enzyme activity assay (with or without SNP); format: biochemical; conditions: 30 μM compound; for sGC Enzyme Activity Increase at 30 μM with SNP: 1 μM SNP, specific activity vs DMSO and SNP; for sGC Enzyme Activity Increase at 30 μM without SNP: specific activity vs DMSO control
T2 construct: purchased Enzo Inc. ALX-201-177
T2 sequence (Q02153 1-619): T1 sequence (Q02153 1-619)
T2 sequence (Q02108 1-690): T1 sequence (Q02108 1-690)
Procedure: Human soluble guanylate cyclase enzyme (hsGC) obtained from Enzo Inc. (P/N: ALX-201-177) was used to evaluate the activity of test compounds. The assay reactions contained 0.1 M Tris (pH 8.0), 0.5 mg/mL BSA (pH 8.0), 2 mM DTT, 2 mM MgCl2, 300 μM GTP, 1 mM 3-isobutyl-1-methylxanthine (IBMX) and 5 ng human soluble guanylate cyclase enzyme. Test compounds in DMSO were then added (2 μL, 10 or 30 μM final concentration) and incubated (200 μL, 96-well plate format) at 37° C. for 30 minutes. The controls were carried out using 2 μL DMSO. After the 30 minute incubation, the reaction was stopped with the addition of 200 μL of cold methanol. The plate was then centrifuged at 3,200 rpm for 10 minutes at room temperature. Supernatants (200 μL) were collected and transferred to a new 96 well plate for analysis.
An 8 point cGMP (Sigma-Aldrich P/N: G6129) standard curve was prepared in assay buffer ranging from 0.156-20 μM. Samples for the cGMP standard curve were then diluted with an equal volume of methanol resulting in final cGMP concentrations of 0.078-10 μM.
The cGMP standard curve was generated using GraphPad Prism Software.
Calculations: Specific Activity was determined by the amount of cGMP formed (nmoles) per mg of sGC per min. Enzyme activity “fold-change” was calculated by dividing the Specific Activity for a test compound by the Specific Activity of DMSO control.
The enzymatic activity fold-change of the purified human sGC enzyme determined in the presence of each of the test compounds individually at 10 or 30 μm without the addition of sodium nitroprusside (SNP), a nitric oxide donor, is presented in Table 5.
Enzyme assays were also performed as described above, but in the presence of 1 μM sodium nitroprusside (SNP). Enzymatic activity fold-changes are reported for selected test compounds in the presence of both SNP and the test compound. These were calculated by dividing the specific activity (activity increase) for the test compound dissolved in DMSO and SNP over the specific activity for the mixture of DMSO and SNP.

| Compound | Emax at 10 µM [1] [%] | Emax at 30 µM [1] [%] | sGC Enzyme Activity Increase at 30 μM with SNP [2] | sGC Enzyme Activity Increase at 30 μM without SNP [2] |
| --- | --- | --- | --- | --- |
| Fc1ccccc1Cn1nc(-c2cscn2)nc1-c1cc(Br)ccn1 [Compound I-52, 4-(5-(4-bromopyridin-2-yl)-1-(2-fluorobenzyl)-1H-1,2,4-triazol-3-yl)thiazole] | 0 to 5 | 0 to 5 | B (B = 1 to <2 fold increase) | B (B = 1 to <2 fold increase) |
| Fc1ccccc1Cn1nc(-c2cc(Br)ccn2)nc1-c1cocn1 [Compound I-54, 4-(3-(4-bromopyridin-2-yl)-1-(2-fluorobenzyl)-1H-1,2,4-triazol-5-yl)oxazole] | 20 to 40 | 40 to 60 | D (D = 5 to <10 fold increase) | C (C = 2 to <5 fold increase) |
| Fc1ccccc1Cn1nc(-c2cscn2)nc1-c1cnccn1 [Compound I-55] | 0 to 5 | 5 to 10 | C (C = 2 to <5 fold increase) | B (B = 1 to <2 fold increase) |
| Fc1ccccc1Cn1nc(-c2cnccn2)nc1-c1cscn1 [Compound I-56] | 10 to 20 | 40 to 60 | D (D = 5 to <10 fold increase) | B (B = 1 to <2 fold increase) |
| Nc1nc(-c2nc(-c3nccs3)n(Cc3ccccc3F)n2)nc(N)c1N [Compound I-57, 2-(1-(2-fluorobenzyl)-5-(thiazol-2-yl)-1H-1,2,4-triazol-3-yl)pyrimidin-4,5,6-triamine] | 0 to 5 | 0 to 5 | C (C = 2 to <5 fold increase) | B (B = 1 to <2 fold increase) |
| Fc1ccccc1Cn1nc(-c2ccccn2)nc1-c1ccon1 [Compound I-58, 3-(1-(2-fluorobenzyl)-3-(pyridin-2-yl)-1H-1,2,4-triazol-5-yl)isoxazole] | 40 to 60 | 60 to 80 | D (D = 5 to <10 fold increase) | C (C = 2 to <5 fold increase) |
| Fc1ccccc1Cn1nc(-c2ncccn2)nc1-c1ccon1 [Compound I-59, 3-(1-(2-fluorobenzyl)-3-(pyrimidin-2-yl)-1H-1,2,4-triazol-5-yl)isoxazole] | 0 to 5 | 0 to 5 | A (A = no increase to <1 fold increase) | A (A = no increase to <1 fold increase) |
| COC(=O)Nc1c(N)nc(-c2nc(-c3nccs3)n(Cc3ccccc3F)n2)nc1N [Compound I-60, methyl 4,6-diamino-2-(1-(2-fluorobenzyl)-5-(thiazol-2-yl)-1H-1,2,4-triazol-3-yl)pyrimidin-5-ylcarbamate] | 10 to 20 | 20 to 40 | D (D = 5 to <10 fold increase) | B (B = 1 to <2 fold increase) |
| Fc1ccccc1Cn1nc(-c2cocn2)nc1-c1nccs1 [Compound I-62] | 10 to 20 | 5 to 10 | C (C = 2 to <5 fold increase) | A (A = no increase to <1 fold increase) |
| Fc1ccccc1Cn1nc(-c2nccs2)nc1-c1cocn1 [Compound I-63] | 60 to 80 | 20 to 40 | D (D = 5 to <10 fold increase) | B (B = 1 to <2 fold increase) |
| Fc1ccccc1Cn1nc(-c2cc(N3CCOCC3)ccn2)nc1-c1nccs1 [Compound I-65, 4-(2-(1-(2-fluorobenzyl)-5-(thiazol-2-yl)-1H-1,2,4-triazol-3-yl)pyridin-4-yl)morpholine] | 80 to 100 | 80 to 100 | E (E = 10 to <20 fold increase) | D (D = 5 to <10 fold increase) |
| Fc1ccccc1Cn1nc(-c2cc(N3CCOCC3)ccn2)nc1-c1cocn1 [Compound I-68, 4-(2-(1-(2-fluorobenzyl)-5-(oxazol-4-yl)-1H-1,2,4-triazol-3-yl)pyridin-4-yl)morpholine] | 20 to 40 | 40 to 60 | E (E = 10 to <20 fold increase) | C (C = 2 to <5 fold increase) |
